Source: US5140014A (Abbott Laboratories, priority 1989, dated 1992)
Converted amounts (≈) assume the structure as drawn. Where two headings read alike, the source gives them in different places.

Legend:
Experiment in all cases: in vitro antibacterial activity, agar dilution method (MIC)
Assay type in all cases: cell-based
Acinetobacter Sp = conditions: strain CMX 669, BHI agar, 20-24 hours
Outline: (§1)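 Agar dilution in Brain Heart Infusion agar, usually 12 two-fold dilutions from a 2,000 ug/mL stock. Overnight BHI broth cultures were diluted 1:100 (1:10 for slow growers such as Streptococcus), and ~10^4 organisms were spotted per plate. MIC read after 20-24 h at 35°-37° C as lowest concentration giving no growth, slight haze or sparse colonies versus growth control.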

Enterobacter Aerogenes = conditions: BHI agar, 20-24 hours
Outline: as §1

Enterococcus Faecium = conditions: BHI agar, 20-24 hours
Outline: as §1

Haemophilus Influenzae = conditions: BHI agar, 20-24 hours
Outline: as §1

Klebsiella Pneumoniae = conditions: BHI agar, 20-24 hours
Outline: as §1

Micrococcus Luteus = conditions: BHI agar, 20-24 hours
Outline: as §1

Providencia Stuartii = conditions: Providencia stuartii; strain CMX 640; BHI agar, 20-24 hours; read-out: MIC
Outline: as §1

Pseudomonas Aeruginosa = conditions: BHI agar, 20-24 hours
Outline: as §1

Staphylococcus Aureus = conditions: BHI agar, 20-24 hours
Outline: as §1

[1] = tested on: Staphylococcus Epidermidis; conditions: strain 3519, BHI agar, 20-24 hours
Outline: as §1

Streptococcus Agalactiae = conditions: strain CMX 508, BHI agar, 20-24 hours
Outline: as §1

Streptococcus Bovis = conditions: Streptococcus equinus, strain A5169; BHI agar, 20-24 hours; read-out: MIC
Outline: as §1

Streptococcus Pyogenes = conditions: BHI agar, 20-24 hours
Outline: as §1

Escherichia Coli = conditions: BHI agar, 20-24 hours
Outline: (§2)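 Agar dilution on BHI agar, typically 12 two-fold dilutions prepared from a 2,000 ug/mL stock solution. Plates were spot-inoculated with about 10^4 organisms from overnight BHI broth cultures, then incubated 20-24 h at 35°-37° C. MIC was the lowest concentration giving no growth, a slight haze or sparse isolated colonies compared with the growth control.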

Pseudomonas Cepacia = conditions: Burkholderia cepacia; strain 296I; BHI agar, 20-24 hours; read-out: MIC
Outline: as §2

[2] = Haemophilus influenzae, ATCC9795, strain ATCC 9795, read-out: MIC
[3] = Haemophilus influenzae, ATCC19418, strain ATCC 19418, read-out: MIC
[4] = Haemophilus influenzae, strain 566A, read-out: MIC
[5] = Haemophilus influenzae, strain 632A, read-out: MIC
[6] = Haemophilus influenzae, strain 747C, read-out: MIC
[7] = Haemophilus influenzae, strain SOL AMP R, read-out: MIC
[8] = Haemophilus influenzae, strain SPK AMP R, read-out: MIC
[9] = Micrococcus luteus, ATCC9341, strain ATCC 9341, read-out: MIC
[10] = Pseudomonas aeruginosa, strain A5007, read-out: MIC
[11] = Pseudomonas aeruginosa, strain BMH10, read-out: MIC
[12] = Pseudomonas aeruginosa, strain K799/WT, read-out: MIC
[13] = Streptococcus pyogenes, strain 930 CONST, read-out: MIC
[14] = Streptococcus pyogenes, strain EES61, read-out: MIC
[15] = Escherichia coli, strain SS, read-out: MIC

CCC1OC(=O)CC(O)C(C)C(OC2OC(C)CC(N(C)C)C2O)C(CC=O)CC(C)C(N(C)C)CCC2(C)OC2C1C (centres unmarked) [Example 2, [9R]-9-Deoxo-10,11-dihydro-9-N,N-dimethylamino-rosaramicin]
MIC (Acinetobacter Sp): 25 µg/mL (≈ 40.8 µM) | MIC (Enterobacter Aerogenes; strain ATCC 13048): 100 µg/mL (≈ 163 µM) | MIC (Enterococcus Faecium; strain ATCC 8043): 12.5 µg/mL (≈ 20.4 µM) | MIC (Haemophilus Influenzae; [2]): 2 µg/mL (≈ 3.26 µM) | MIC (Haemophilus Influenzae; [3]): 4 µg/mL (≈ 6.53 µM) | MIC (Haemophilus Influenzae; Haemophilus influenzae, ATCC43095, strain ATCC 43095, read-out: MIC): 4 µg/mL (≈ 6.53 µM) | MIC (Haemophilus Influenzae; [4]): 2 µg/mL (≈ 3.26 µM) | MIC (Haemophilus Influenzae; Haemophilus influenzae, strain 588A, read-out: MIC): 2 µg/mL (≈ 3.26 µM) | MIC (Haemophilus Influenzae; [5]): 2 µg/mL (≈ 3.26 µM) | MIC (Haemophilus Influenzae; [6]): 2 µg/mL (≈ 3.26 µM) | MIC (Haemophilus Influenzae; [7]): 2 µg/mL (≈ 3.26 µM) | MIC (Haemophilus Influenzae; [8]): 0.5 µg/mL (≈ 0.816 µM) | MIC (Haemophilus Influenzae; strain 503B): 2 µg/mL (≈ 3.26 µM) | MIC (Haemophilus Influenzae; strain 504): 2 µg/mL (≈ 3.26 µM) | MIC (Haemophilus Influenzae; strain 519A): 1 µg/mL (≈ 1.63 µM) | MIC (Haemophilus Influenzae; strain 667A): 2 µg/mL (≈ 3.26 µM) | MIC (Haemophilus Influenzae; strain 751): 1 µg/mL (≈ 1.63 µM) | MIC (Haemophilus Influenzae; strain 1177): 0.25 µg/mL (≈ 0.408 µM) | MIC (Haemophilus Influenzae; strain 1435): 1 µg/mL (≈ 1.63 µM) | MIC (Haemophilus Influenzae; strain ATCC 10211): 2 µg/mL (≈ 3.26 µM) | MIC (Klebsiella Pneumoniae; strain ATCC 8045): 25 µg/mL (≈ 40.8 µM) | MIC (Micrococcus Luteus; [9]): 3.1 µg/mL (≈ 5.06 µM) | MIC (Micrococcus Luteus; strain ATCC 4698): 6.2 µg/mL (≈ 10.1 µM) | MIC (Providencia Stuartii): > 100 µg/mL | MIC (Pseudomonas Aeruginosa; [10]): > 100 µg/mL | MIC (Pseudomonas Aeruginosa; [11]): > 100 µg/mL | MIC (Pseudomonas Aeruginosa; [12]): > 100 µg/mL | MIC (Pseudomonas Aeruginosa; strain K799/61): 3.1 µg/mL (≈ 5.06 µM) | MIC (Staphylococcus Aureus; strain 45): 25 µg/mL (≈ 40.8 µM) | MIC (Staphylococcus Aureus; strain 45 RAR2): 25 µg/mL (≈ 40.8 µM) | MIC (Staphylococcus Aureus; strain 642A): 50 µg/mL (≈ 81.6 µM) | MIC (Staphylococcus Aureus; strain A5177): 25 µg/mL (≈ 40.8 µM) | MIC (Staphylococcus Aureus; strain ATCC 6538P): 25 µg/mL (≈ 40.8 µM) | MIC (Staphylococcus Aureus; strain CMX 553): 25 µg/mL (≈ 40.8 µM) | MIC (Staphylococcus Aureus; strain NCTC 10649): 25 µg/mL (≈ 40.8 µM) | MIC [1]: 25 µg/mL (≈ 40.8 µM) | MIC (Streptococcus Agalactiae): 3.1 µg/mL (≈ 5.06 µM) | MIC (Streptococcus Bovis): 1.56 µg/mL (≈ 2.55 µM) | MIC (Streptococcus Pyogenes; [13]): > 100 µg/mL | MIC (Streptococcus Pyogenes; [14]): 3.1 µg/mL (≈ 5.06 µM) | MIC (Streptococcus Pyogenes; strain 2548 INDUC): 6.2 µg/mL (≈ 10.1 µM) | MIC (Escherichia Coli; [15]): 0.2 µg/mL (≈ 0.326 µM) | MIC (Escherichia Coli; strain DC-2): 50 µg/mL (≈ 81.6 µM) | MIC (Escherichia Coli; strain JUHL): 100 µg/mL (≈ 163 µM) | MIC (Escherichia Coli; strain KNK 437): 50 µg/mL (≈ 81.6 µM) | MIC (Pseudomonas Cepacia): > 100 µg/mL

CCC1OC(=O)CC(O)C(C)C(OC2OC(C)C(O)C(N(C)C)C2O)C(CC=O)CC(C)C(N(C)C)CCC(C)=CC1COC(C)=O (centres unmarked) [Example 6, [9R]-23-O-Acetyl-9-deoxo-10,11-dihydro-9-N,N-dimethylamino-5-O-mycaminosyl-tylonide]
MIC (Acinetobacter Sp; Acinetobacter, read-out: MIC): > 100 µg/mL | MIC (Enterobacter Aerogenes; Klebsiella aerogenes, ATCC13048, strain ATCC 13048, read-out: MIC): > 100 µg/mL | MIC (Enterococcus Faecium; Enterococcus faecium, ATCC8043, strain ATCC 8043, read-out: MIC): 1.56 µg/mL (≈ 2.33 µM) | MIC (Haemophilus Influenzae; [2]): 4 µg/mL (≈ 5.96 µM) | MIC (Haemophilus Influenzae; Haemophilus influenzae, ATCC10211, strain ATCC 10211, read-out: MIC): 4 µg/mL (≈ 5.96 µM) | MIC (Haemophilus Influenzae; [3]): 8 µg/mL (≈ 11.9 µM) | MIC (Haemophilus Influenzae; Haemophilus influenzae, strain 504, read-out: MIC): 2 µg/mL (≈ 2.98 µM) | MIC (Haemophilus Influenzae; Haemophilus influenzae, strain 519A, read-out: MIC): 2 µg/mL (≈ 2.98 µM) | MIC (Haemophilus Influenzae; [4]): 8 µg/mL (≈ 11.9 µM) | MIC (Haemophilus Influenzae; [5]): 8 µg/mL (≈ 11.9 µM) | MIC (Haemophilus Influenzae; [6]): 8 µg/mL (≈ 11.9 µM) | MIC (Haemophilus Influenzae; Haemophilus influenzae, strain 751, read-out: MIC): > 16 µg/mL | MIC (Haemophilus Influenzae; Haemophilus influenzae, strain 1177, read-out: MIC): 0.25 µg/mL (≈ 0.373 µM) | MIC (Haemophilus Influenzae; Haemophilus influenzae, strain 1435, read-out: MIC): 4 µg/mL (≈ 5.96 µM) | MIC (Haemophilus Influenzae; Haemophilus influenzae, strain DILL AMP R, read-out: MIC): 4 µg/mL (≈ 5.96 µM) | MIC (Haemophilus Influenzae; [7]): 8 µg/mL (≈ 11.9 µM) | MIC (Haemophilus Influenzae; [8]): 8 µg/mL (≈ 11.9 µM) | MIC (Haemophilus Influenzae; strain 503B): 8 µg/mL (≈ 11.9 µM) | MIC (Haemophilus Influenzae; strain ATCC 43095): 8 µg/mL (≈ 11.9 µM) | MIC (Klebsiella Pneumoniae; Klebsiella pneumoniae, ATCC8045, strain ATCC 8045, read-out: MIC): > 100 µg/mL | MIC (Micrococcus Luteus; Micrococcus luteus, ATCC4698, strain ATCC 4698, read-out: MIC): 1.56 µg/mL (≈ 2.33 µM) | MIC (Micrococcus Luteus; [9]): 0.78 µg/mL (≈ 1.16 µM) | MIC (Providencia Stuartii): > 100 µg/mL | MIC (Pseudomonas Aeruginosa; [10]): > 100 µg/mL | MIC (Pseudomonas Aeruginosa; [11]): > 100 µg/mL | MIC (Pseudomonas Aeruginosa; Pseudomonas aeruginosa, strain K799/61, read-out: MIC): 6.2 µg/mL (≈ 9.24 µM) | MIC (Pseudomonas Aeruginosa; [12]): > 100 µg/mL | MIC (Staphylococcus Aureus; Staphylococcus aureus, ATCC6538P, strain ATCC 6538P, read-out: MIC): 3.1 µg/mL (≈ 4.62 µM) | MIC (Staphylococcus Aureus; Staphylococcus aureus, NCTC10649, strain NCTC 10649, read-out: MIC): 3.1 µg/mL (≈ 4.62 µM) | MIC (Staphylococcus Aureus; Staphylococcus aureus, strain 45, read-out: MIC): 3.1 µg/mL (≈ 4.62 µM) | MIC (Staphylococcus Aureus; Staphylococcus aureus, strain 45 RAR2, read-out: MIC): 6.2 µg/mL (≈ 9.24 µM) | MIC (Staphylococcus Aureus; Staphylococcus aureus, strain 642A, read-out: MIC): 6.2 µg/mL (≈ 9.24 µM) | MIC (Staphylococcus Aureus; Staphylococcus aureus, strain A5177, read-out: MIC): 3.1 µg/mL (≈ 4.62 µM) | MIC (Staphylococcus Aureus; Staphylococcus aureus, strain CMX 553, read-out: MIC): 6.2 µg/mL (≈ 9.24 µM) | MIC ([1]; Staphylococcus epidermidis, read-out: MIC): 3.1 µg/mL (≈ 4.62 µM) | MIC (Streptococcus Agalactiae; Streptococcus agalactiae, read-out: MIC): 0.39 µg/mL (≈ 0.581 µM) | MIC (Streptococcus Bovis): 0.1 µg/mL (≈ 0.149 µM) | MIC (Streptococcus Pyogenes; [13]): > 100 µg/mL | MIC (Streptococcus Pyogenes; Streptococcus pyogenes, strain 2548 INDUC, read-out: MIC): 3.1 µg/mL (≈ 4.62 µM) | MIC (Streptococcus Pyogenes; [14]): 0.39 µg/mL (≈ 0.581 µM) | MIC (Escherichia Coli; Escherichia coli, strain DC-2, read-out: MIC): 100 µg/mL (≈ 149 µM) | MIC (Escherichia Coli; Escherichia coli, strain JUHL, read-out: MIC): > 100 µg/mL | MIC (Escherichia Coli; Escherichia coli, strain KNK 437, read-out: MIC): > 100 µg/mL | MIC (Escherichia Coli; [15]): 1.56 µg/mL (≈ 2.33 µM) | MIC (Escherichia Coli; strain H560): 50 µg/mL (≈ 74.5 µM) | MIC (Pseudomonas Cepacia): > 100 µg/mL
